Laboratory results from EP4567031A1, “HPK1 INHIBITOR, PREPARATION METHOD THEREFOR, AND USE THEREOF” (Beijing Earthwise Technology Co., Ltd., priority 2022, dated 2024).

Legend:
HPK1 = HPK1 (Homo sapiens, UniProt Q92918); assay: HPK1 HTRF kinase assay; assay type: biochemical; settings: 1000 µM ATP; 50 nM HPK1; STK1 substrate; read-out: HPK1, IC50
Experimental: The reaction was initiated by adding 50 nM HPK1. After 120 minutes of reaction, the assay was terminated by adding 10 µL of Detection Mix.
The ratio of the signal at 665 nm to the signal at 615 nm was converted to the percentage of inhibition. Inhibition % = (maximum value - sample value) / (maximum value - minimum value)×100. The minimum value refers to the value measured in a well without enzyme but with DMSO and substrate, and the maximum value refers to the value measured in a well with DMSO, enzyme and substrate. IC50 values were calculated by XLFit (version 5.3.1.3) in Excel. Equation: Y = Bottom + (Top - Bottom) / (1 + (IC50/X) ^ HillSlope).

human Pan T cells = assay: Human Pan T cell IL-2 ELISA; assay type: cell-based; settings: Homo sapiens, T-cell, 48 h, Anti-CD3 and Anti-CD28, supernatant IL-2 ELISA, read-out: IL-2 release, EC50
Outline: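 Human Pan T cells (1×10^6 cells/ml) stimulated with plate-bound anti-CD3 plus anti-CD28 and treated 48 h with compound at 9 final concentrations, 39.063–10000 nM. Supernatant IL-2 by ELISA, expressed as fold over DMSO wells; EC50 from four-parameter logistic fit.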

HPK1, sequence (Q92918 whole entry, species assumed): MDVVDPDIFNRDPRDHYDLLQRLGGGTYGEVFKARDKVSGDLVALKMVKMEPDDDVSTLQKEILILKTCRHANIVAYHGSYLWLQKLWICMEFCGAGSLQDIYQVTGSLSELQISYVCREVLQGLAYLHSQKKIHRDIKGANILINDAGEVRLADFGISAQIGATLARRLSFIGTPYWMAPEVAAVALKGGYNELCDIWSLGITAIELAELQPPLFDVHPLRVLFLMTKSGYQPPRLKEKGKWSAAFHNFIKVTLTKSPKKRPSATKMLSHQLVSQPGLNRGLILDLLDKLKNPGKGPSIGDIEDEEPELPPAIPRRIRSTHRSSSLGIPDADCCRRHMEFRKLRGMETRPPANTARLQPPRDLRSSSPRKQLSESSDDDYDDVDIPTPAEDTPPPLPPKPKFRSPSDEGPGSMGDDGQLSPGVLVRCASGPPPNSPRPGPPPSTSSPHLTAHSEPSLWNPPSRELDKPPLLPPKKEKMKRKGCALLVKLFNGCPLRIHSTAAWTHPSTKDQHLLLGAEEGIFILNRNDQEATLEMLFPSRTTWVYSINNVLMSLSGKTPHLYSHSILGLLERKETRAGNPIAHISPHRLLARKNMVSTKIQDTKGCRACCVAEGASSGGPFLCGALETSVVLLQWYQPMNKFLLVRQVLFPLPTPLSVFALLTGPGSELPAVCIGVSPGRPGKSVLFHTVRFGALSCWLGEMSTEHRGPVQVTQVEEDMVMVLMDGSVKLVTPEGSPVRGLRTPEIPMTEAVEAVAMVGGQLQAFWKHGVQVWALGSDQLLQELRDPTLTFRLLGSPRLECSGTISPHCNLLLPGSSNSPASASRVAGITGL

Row | IC50 (HPK1) [µM] | EC50 (human Pan T cells) [µM] | Structure (SMILES)
1 | 0.00365 | < 0.0015 | CC1(C)c2cc(N3CCOC(C(C)(C)O)C3)ccc2Nc2c1cc(-c1cnc3c(C#N)cccn13)c1c2C(=O)NC1 (stereo not drawn) [Example 23]
2 | 0.0118 | 0.00183 | COc1ccnn2c(-c3cc4c(c5c3CNC5=O)Nc3ccc(N5CCOC(C(C)(C)O)C5)cc3C4(C)C)cnc12 (stereo not drawn) [Example 24]
3 | 0.0215 | 0.0959 | CC1(C)c2cc(N3CCOCC3)cnc2Nc2c1cc(-c1cnn3cccnc13)c1c2C(=O)NC1 [Example 28]
4 | 0.0101 | 0.0279 | CC1(C)c2cc(-c3cnn4cccnc34)c3c(c2Nc2ccc(N4CCOCC4)nc21)C(=O)NC3 [Example 29]
5 | 0.0115 | 0.00241 | CC1(C)c2cc(N3CCOCC3)ccc2Nc2c1cc(-c1cnc3c(C#N)cccn13)c1c2C(=O)NC1 [Example 34]
6 | 0.0123 | 0.0047 | Cn1ccc2c(-c3cc4c(c5c3CNC5=O)Nc3ccc(N5CCOCC5)cc3C4(C)C)cncc21 [Example 38]
7 | 0.00871 | 0.019 | CN1CCN(Cc2ccc3c(c2)C(C)(C)c2cc(-c4cnn5cccnc45)c4c(c2N3)C(=O)NC4)CC1 [Example 50]
8 | 0.0082 | 0.00908 | CC1(C)c2cc(C3COCCN3)ccc2Nc2c1cc(-c1cnn3cccnc13)c1c2C(=O)NC1 (stereo not drawn) [Example 52]
9 | 0.00797 | 0.00554 | CC1(C)c2cc(N3CCOCC3)ccc2Nc2c1cc(-c1cnn3cnccc13)c1c2C(=O)NC1 [Example 53]
10 | 0.00381 | 0.00653 | Cc1ccnn2c(-c3cc4c(c5c3CNC5=O)Nc3ccc(N5CCOCC5)cc3C4(C)C)cnc12 [Example 54]
11 | 0.011 | 0.0271 | CC1(C)c2cc(CN3CCNCC3)ccc2Nc2c1cc(-c1cnn3cccnc13)c1c2C(=O)NC1 [Example 57]
12 | 0.00855 | 0.0177 | Cc1cnc2c(-c3cc4c(c5c3CNC5=O)Nc3ccc(N5CCOCC5)cc3C4(C)C)cnn2c1 [Example 61]
13 | 0.00393 | 0.0144 | Cn1cccc(Nc2cc3c(c4c2CNC4=O)Nc2ccc(N4CCOCC4)cc2C3(C)C)c1=O [Example 67]
14 | 0.00213 | 0.0181 | CC1(C)c2cc(CN3CCN(CC4CC4)CC3)ccc2Nc2c1cc(-c1cnn3cccnc13)c1c2C(=O)NC1 [Example 72]
15 | 0.0497 | 0.1 | CC1(C)c2cc(N3CCOCC3)ccc2Nc2c1cc(-c1cncc(OCC3COC3)c1)c1c2C(=O)NC1 [Example 74]
16 | 0.00455 | 0.00141 | COc1cccn2c(-c3cc4c(c5c3CNC5=O)Nc3ccc(N5CCOCC5)cc3C4(C)C)nnc12 [Example 75]
17 | 0.00873 | 0.0504 | COc1cncc2c(-c3cc4c(c5c3CNC5=O)Nc3ccc(N5CCOCC5)cc3C4(C)C)cnn12 [Example 76]
18 | 0.035 | 0.0755 | CN1CCn2c(-c3cc4c(c5c3CNC5=O)Nc3ccc(N5CCOCC5)cc3C4(C)C)cnc2C1 [Example 78]
19 | 0.00863 | 0.0659 | CN1CCn2c(-c3cc4c(c5c3CNC5=O)Nc3ccc(N5CCOCC5)cc3C4(C)C)cnc2C1=O [Example 84]

Continued, compound first:

Row | Structure (SMILES) | IC50 (HPK1) [µM] | EC50 (human Pan T cells) [µM]
20 | CC1(C)c2cc(N3CCOCC3)ncc2Nc2c1cc(-c1cnn3cccnc13)c1c2C(=O)NC1 [Example 26] | 0.0145 | 0.0149
21 | COc1cccc2c(-c3cc4c(c5c3CNC5=O)Nc3cnc(N5CCOCC5)cc3C4(C)C)cnn12 [Example 27] | 0.0117 | 0.00179
22 | Cn1ccc(-c2cc3c(c4c2CNC4=O)Nc2ccc(N4CCOC(C(C)(C)O)C4)cc2C3(C)C)cc1=O (stereo not drawn) [Example 32] | 0.0164 | 0.0123
23 | CC1(C)c2cc(N3CCOCC3)ccc2Nc2c1cc(-c1cnn3ccncc13)c1c2C(=O)NC1 [Example 35] | 0.0128 | 0.0145
24 | CC1(C)c2cc(N3CCOCC3)ccc2Nc2c1cc(-c1cnn3c1CCCC3)c1c2C(=O)NC1 [Example 36] | 0.0118 | 0.00633
25 | CC1(C)c2cc(N3CCOCC3)ccc2Nc2c1cc(-c1cnn3ccccc13)c1c2C(=O)NC1 [Example 37] | 0.00798 | 0.00227
26 | CC1(C)c2cc(N3CCOCC3)ccc2Nc2c1cc(-c1nnc3c(C#N)cccn13)c1c2C(=O)NC1 [Example 39] | 0.039 | 0.0168
27 | Cc1ccn2c(-c3cc4c(c5c3CNC5=O)Nc3ccc(N5CCC(O)CC5)cc3C4(C)C)cnc2c1F [Example 40] | 0.0123 | 0.00507
28 | Cc1ccn2c(-c3cc4c(c5c3CNC5=O)Nc3ccc(N5CCOC(CO)C5)cc3C4(C)C)cnc2c1F (stereo not drawn) [Example 46] | 0.0103 | 0.00773
29 | CC1(C)c2cc(CN3CCOCC3)ccc2Nc2c1cc(-c1cnn3cccnc13)c1c2C(=O)NC1 [Example 51] | 0.0114 | 0.0588
30 | CN1CCN(c2ccc3c(c2)C(C)(C)c2cc(-c4cnn5cccnc45)c4c(c2N3)C(=O)NC4)C(=O)C1 [Example 55] | 0.00755 | 0.0403
31 | CC1(C)c2cc(NC(=O)CC3CC3)ccc2Nc2c1cc(-c1cnn3cccnc13)c1c2C(=O)NC1 [Example 56] | 0.0115 | 0.028
32 | CC1(C)c2cc(N3CCOCC3)c(F)cc2Nc2c1cc(-c1cnn3cccnc13)c1c2C(=O)NC1 [Example 59] | 0.00778 | 0.00697
33 | Cc1ccnc2c(-c3cc4c(c5c3CNC5=O)Nc3ccc(N5CCOCC5)cc3C4(C)C)cnn12 [Example 60] | 0.0144 | 0.0179
34 | CC1(C)c2cc(N3CCOCC3)ccc2Nc2c1cc(-c1cnc3cc(F)ccn13)c1c2C(=O)NC1 [Example 62] | 0.00608 | 0.00302
35 | COc1nccn2c(-c3cc4c(c5c3CNC5=O)Nc3ccc(N5CCOCC5)cc3C4(C)C)cnc12 [Example 63] | 0.00548 | 0.00498

Row | Structure (SMILES) | IC50 (HPK1) [µM] | EC50 (human Pan T cells) [µM]
36 | CC1(C)c2cc(N3CCOCC3)ccc2Nc2c1cc(-c1cnc3c(F)cccn13)c1c2C(=O)NC1 [Example 64] | 0.00528 | 0.00351
37 | CC1CCn2c(-c3cc4c(c5c3CNC5=O)Nc3ccc(N5CCOCC5)cc3C4(C)C)cnc2C1 (stereo not drawn) [Example 65] | 0.00859 | 0.028
38 | Cn1c(-c2cc3c(c4c2CNC4=O)Nc2ccc(N4CCOCC4)cc2C3(C)C)cnc1C1CC1 [Example 68] | 0.012 | 0.0211
39 | COC1CCCn2c(-c3cc4c(c5c3CNC5=O)Nc3ccc(N5CCOCC5)cc3C4(C)C)cnc21 (stereo not drawn) [Example 69] | 0.00686 | 0.0114
40 | CC1(C)c2cc(N3CCOCC3)ccc2Nc2c1cc(-c1cnn3c1CNCC3)c1c2C(=O)NC1 [Example 70] | 0.0127 | 0.0234
41 | CC1(C)c2cc(N3CCOCC3)ccc2Nc2c1cc(-c1nnc3n1CCCC3)c1c2C(=O)NC1 [Example 71] | 0.011 | 0.0686
42 | CC1(C)c2cc(N3CCOCC3)c(C(F)F)cc2Nc2c1cc(-c1cnn3cccnc13)c1c2C(=O)NC1 [Example 73] | 0.00787 | 0.0289
43 | CC1(C)c2cc(N3CCOCC3)ccc2Nc2c1cc(-c1cnn3c1OCCC3)c1c2C(=O)NC1 [Example 77] | 0.00456 | 0.0136
44 | CC1(C)c2cc(N3CCOCC3)ccc2Nc2c1cc(-c1cnc3n1CCOC3)c1c2C(=O)NC1 [Example 79] | 0.00636 | 0.0195
45 | CC1(C)c2cc(N3CCOCC3)ccc2Nc2c1cc(-n1cnc3c1CCCC3)c1c2C(=O)NC1 [Example 80] | 0.00918 | 0.0866
46 | Cc1cc(-c2cc3c(c4c2CNC4=O)Nc2ccc(N4CCOCC4)cc2C3(C)C)cc(=O)[nH]1 [Example 81] | 0.00631 | 0.0358
47 | CNc1cncc(-c2cc3c(c4c2CNC4=O)Nc2ccc(N4CCOCC4)cc2C3(C)C)c1 [Example 82] | 0.00662 | 0.027
48 | CC1(C)c2cc(C3CCNCC3)ccc2Nc2c1cc(-c1cnn3cccnc13)c1c2C(=O)NC1 [Example 83] | 0.0058 | 0.0174
49 | CC1(C)c2cc(N3CCOCC3)ccc2Nc2c1cc(-c1cnc3n1CCC3)c1c2C(=O)NC1 [Example 86] | 0.00795 | 0.0115
50 | Cc1ncc(-c2cc3c(c4c2CNC4=O)Nc2ccc(N4CCOCC4)cc2C3(C)C)n1C [Example 87] | 0.00788 | 0.00897
51 | CC1(C)c2cc(NC(=O)COCCO)ccc2Nc2c1cc(-c1cnn3cccnc13)c1c2C(=O)NC1 [Example 92] | 0.00764 | 0.0682
